Test system: system A transporters (including Slc38A1)
Experiment: Effect of blocking system A transport on arthritis in mice
Type: in vivo
From the text: FIG. 3 is a graph showing the effect of blocking the system A transporters (including Slc38A1) on (A) mean arthritis score and (B) anti collagen antibody production. P=<0.05, n=20.
This confirms that disease susceptibility can be changed both by increased and decreased transporter activity.

CNC(C)(C)C(=O)O [MeAIB]
arthritis susceptibility: increases arthritis susceptibility
